Experimental data from PMC10771525 (Communications Biology, 2024).
One block for each molecule: values may come before it.

Legend:
[1] = test system: EDG7; experiment: GPCR panel (control), Arrestin, CHO-K1; format: cell-based, human; conditions: reference agonist
[2] = test system: EDG4; experiment: GPCR panel (control), Arrestin, CHO-K1; format: cell-based, human; conditions: reference agonist
[3] = test system: GPR92; experiment: GPCR panel (control), Arrestin, CHO-K1; format: cell-based, human; conditions: reference agonist
[4] = test system: EDG2; experiment: GPCR panel (control), Arrestin, CHO-K1; format: cell-based, human; conditions: reference agonist
[5] = test system: HRH1; experiment: GPCR panel (control), Arrestin, CHO-K1; format: cell-based, human; conditions: reference agonist
[6] = test system: HRH3; experiment: GPCR panel (control), Arrestin, CHO-K1; format: cell-based, human; conditions: reference agonist
[7] = target: MRGPRX2 in the calcium mobilization assays of the small CXCL14 fragments and mutants (human) (UniProt Q96LB1)
Chain of MRGPRX2 in the calcium mobilization assays of the small CXCL14 fragments and mutants (human) (Q96LB1 whole entry, change not shown, the tested form may be a part): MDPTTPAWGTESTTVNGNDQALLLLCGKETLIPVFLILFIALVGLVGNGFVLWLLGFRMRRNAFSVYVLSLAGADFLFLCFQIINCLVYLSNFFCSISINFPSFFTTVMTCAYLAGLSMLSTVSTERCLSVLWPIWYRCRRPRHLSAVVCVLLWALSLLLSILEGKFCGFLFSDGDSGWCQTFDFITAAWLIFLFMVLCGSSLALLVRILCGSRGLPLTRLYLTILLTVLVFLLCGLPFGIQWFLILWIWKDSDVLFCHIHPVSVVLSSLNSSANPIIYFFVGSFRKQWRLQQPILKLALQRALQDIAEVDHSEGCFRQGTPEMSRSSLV

[8] = target: MRGPRX2 fused to ProLink (PK), in CHO β-arrestin cells (human) (UniProt Q96LB1)
Chain of MRGPRX2 fused to ProLink (PK), in CHO β-arrestin cells (human) (Q96LB1 whole entry, the tested form may be a part): as the sequence (Q96LB1 whole entry, change not shown, the tested form may be a part) above

[9] = target: MRGPRX2 in the calcium mobilization assays of the small CXCL14 fragments and mutants (human) (UniProt Q96LB1); remark: listed apart in the source
[10] = target: MRGPRX2 fused to ProLink (PK), in CHO β-arrestin cells (human) (UniProt Q96LB1); remark: listed apart in the source
[11] = target: T1, mouse MRGPRB2 in 1321N1 astrocytoma cells (mouse) (UniProt Q3KNA1)
T1 sequence: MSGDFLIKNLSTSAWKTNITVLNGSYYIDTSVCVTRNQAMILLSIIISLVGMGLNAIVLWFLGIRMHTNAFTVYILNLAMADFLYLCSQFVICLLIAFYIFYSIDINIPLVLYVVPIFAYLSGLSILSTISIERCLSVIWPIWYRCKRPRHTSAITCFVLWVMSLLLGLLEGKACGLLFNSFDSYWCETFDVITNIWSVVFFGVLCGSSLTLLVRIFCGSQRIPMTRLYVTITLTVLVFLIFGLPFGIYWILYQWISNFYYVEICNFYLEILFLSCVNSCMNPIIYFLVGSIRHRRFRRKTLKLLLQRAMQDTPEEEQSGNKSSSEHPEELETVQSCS

[12] = target: MRGPRX2 fused to ProLink (PK), in CHO β-arrestin cells (human) (UniProt Q96LB1); remark: listed apart in the source
[13] = target: T1, mouse MRGPRB2 in 1321N1 astrocytoma cells (mouse); remark: listed apart in the source
[14] = target: MRGPRX2 in LN229 glioblastoma cells (human) (UniProt Q96LB1)
[15] = target: MRGPRX2 in CHEM-1 cells (human) (UniProt Q96LB1)

Molecule: CCCCCCCC/C=C\CCCCCCCC(=O)OCC(O)COP(=O)(O)O (stereo not drawn) [1-Oleoyl-LPA]
EC50 [4]: 280 nM
EC80 [4]: 23 µM

B1: CXC motif chemokine 14 (CXCL14) (ligand)
chain: SKCKCSRKGPKIRYSDVKKLEMKPKYPHCEEKMVIITTKSVSRYRGQEHCLHPKLQSTKRFIKWYNAWNEKRRVYEE
EC50, calcium mobilization, 1321N1 astrocytoma cells stably expressing MRGPRB2 (no response in non-transfected cells) [11]: 0.972 µM
EC50, β-arrestin recruitment, β-arrestin-CHO cells recombinantly expressing MRGPRX2 [12]: 0.905 µM
EC50, activation of MRGPRB2 as repeated in the discussion [13]: 0.923 µM
EC50, calcium mobilization, LN229 cells recombinantly expressing MRGPRX2 (no activation in non-transfected LN229 cells) [14]: 0.504 µM
EC50, calcium mobilization, CHEM-1 cells recombinantly expressing MRGPRX2 (no response in the parental CHEM1 cell line) [15]: 0.889 µM

Second part, led by results:

EC50 [5]: 48 nM
Molecule: CNCCc1cnc(CCC(c2ccccc2)c2ccccc2)[nH]1 [Methylhistaprodifen]
EC80 [5]: 11 µM

Emax, calcium mobilization at MRGPRX2, normalized to the maximal effect of CXCL14 [7]: 170%
Emax, β-arrestin recruitment at MRGPRX2, normalized to the maximal effect of CXCL14 [8]: 195%
EC50, calcium mobilization at MRGPRX2 [9]: 0.301 µM
EC50, β-arrestin recruitment at MRGPRX2 [10]: 1.96 µM
Molecule: STKRFIKWY [CXCL14(57-65)]
